Data as given in PubChem BioAssay (NCI).
Where “and” joins values, the source holds several entries; their conditions need not be identical. Equal values may be shown once.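 Interpolation was linear, between the two tested concentrations surrounding the appropriate level; five concentrations were tested over 48 hours in 96-well plates. GI50 is the concentration that inhibits growth by half. Definition used: TGI = concentration required for complete inhibition of growth.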

Key:
Test in all cases: NCI tumour cell line growth inhibition, 48 h
[1] = system: UACC-257 melanoma
[2] = system: XF 498 CNS
[3] = system: OVCAR-5 ovarian
[4] = system: NCI-H23 lung
[5] = system: SNB-75 CNS
[6] = system: UO-31 renal
[7] = system: LOX IMVI melanoma
[8] = system: NCI-H226 lung
[9] = system: DMS 273 small cell lung
[10] = system: T-47D breast

SMILES	TGI [1] [µM]	TGI [2] [µM]	TGI [3] [µM]	TGI [4]	TGI [5]	TGI [6] [µM]	TGI [7]	TGI [8]	TGI [9] [µM]	GI50 [1] [µM]	GI50 [3]	GI50 [4]	GI50 [10] [µM]	TGI [10]	GI50 [5]	GI50 [6]	GI50 [7] [µM]	GI50 [8] [µM]
Cc1cccc(C)c1NC(=O)C(=O)C(C(=O)c1ccccc1-c1ccccc1)C1OC(=O)c2ccccc21 (stereo not drawn)	> 100	30.9	48.9	30 µM	53.4 µM	57.6	45 µM	30.3 µM	–	–	–	–	–	–	–	–	–	–
Cc1nc([N+](=O)[O-])cn1CC(=N)N	> 100	–	–	> 100 µM	> 100 µM	> 100	> 100 µM	> 100 µM	> 100	–	–	–	–	–	–	–	–	–
O=P1(c2ccccc2)CCCCC1	> 100	–	> 100	> 100 µM	> 100 µM	> 100	> 100 µM	> 100 µM	> 100	–	–	–	–	–	–	–	–	–
COc1cc(C=O)c(-c2cc(OC)c(OC)cc2C=O)cc1OC	> 100	–	> 100	> 100 µM	> 100 µM	> 100	66 µM	> 100 µM	> 100	–	–	–	–	–	–	–	–	–
CCCN1CN(C(C(=O)N[C@@H]2C(=O)N3C2SC(C)(C)C3C(=O)O)c2ccc(O)cc2)CSC1=S (stereo partly drawn)	> 100	> 100	> 100	> 100 µM	> 100 µM	> 100	> 100 µM	–	> 100	–	–	–	–	–	–	–	–	–
O=C1NC(=O)/C(=C\c2ccccc2)C2=C1CCCC2	22.5	–	12	8.33 µM	24.7 µM	21.8	4.06 µM	23 µM	–	8.11	3.53 µM	2.63 µM	10.2	29.9 µM	11.9 µM	7.43 µM	1.85	10.8
Cc1ccc(S(=O)(=O)c2ccc(N)cc2)cc1	> 100	> 100	> 100	> 100 µM	> 100 µM	> 100	–	–	> 100	–	–	–	–	–	–	–	–	–
COc1ccc(-c2ccc(-c3ccc(C(=N)N)s3)s2)cc1	1.68	–	0.43	0.66 µM	2.91 µM	0.355	0.382 µM	5.15 µM	–	0.746	0.197 µM	0.264 µM	0.243	0.596 µM	1.39 µM	0.181 µM	0.191	2.06
Cc1c(/C=N/NC(=O)c2ccc(Cl)cc2)c(=O)n(-c2ccccc2)n1C	> 100	–	–	> 100 µM	> 100 µM	> 100	> 100 µM	> 100 µM	> 100	–	–	–	–	–	–	–	–	–
COc1cc(C(=O)N2CCN(c3ncccn3)CC2)c(N)cc1OCc1ccccc1	> 100	–	> 100	> 100 µM	> 100 µM	> 100	> 100 µM	> 100 µM	–	> 100	29.6 µM	> 100 µM	> 100	> 100 µM	50.7 µM	> 100 µM	> 100	> 100
O[C@H](c1cc(C(F)(F)F)nc2c(C(F)(F)F)cccc12)[C@@H]1CCCCN1	9.11	–	20.7	16.6 µM	11.5 µM	9.48	2.99 µM	22.6 µM	–	3.84	7.21 µM	4.75 µM	3.82	16 µM	2.21 µM	1.88 µM	1.51	6.72
CC(=O)Oc1ccccc1C(=O)Nc1ncc([N+](=O)[O-])s1	–	–	> 100	6.39 µM and > 63 µM	7.13 µM and > 67.9 µM	–	14.5 µM and > 100 µM	8.7 µM and 36.7 µM	–	2.16	4.07 µM	1.8 µM	2.88	> 26.6 µM and 60.3 µM	1.6 µM	2.16 µM	2.74	2.62
N#CC(C(=O)C(=O)Nc1ccc(Cl)cc1)c1ccccc1 (stereo not drawn)	> 100	–	> 100	> 100 µM	> 100 µM	> 100	> 100 µM	> 100 µM	> 100	–	–	–	–	–	–	–	–	–
N#Cc1c(N/N=C/c2ccc(Cl)cc2Cl)nc(N)nc1N1CCCC1	> 100	–	99.7	> 100 µM	49.8 µM	> 100	> 100 µM	> 100 µM	–	> 100	24.6 µM	38.5 µM	88.4	> 100 µM	6.26 µM	32 µM	31.8	15.7
O=[N+]([O-])c1ccc(N2N=C(c3ccc(NCc4nc5ccccc5[nH]4)cc3)CC2c2ccco2)cc1 (stereo not drawn)	–	–	> 100	55.9 µM	> 100 µM	55.4	41.6 µM	–	51.8	–	–	–	–	–	–	–	–	–
CC(C)C(=O)NS(=O)(=O)c1ccccc1	> 100	> 100	> 100	> 100 µM	> 100 µM	> 100	> 100 µM	> 100 µM	–	–	–	–	–	–	–	–	–	–
CN1C(=O)/C(=C/c2c(Cl)n(C)c3ccccc23)c2ccccc21	–	–	3.25	5.96 µM and 2.94 µM	3.62 µM	2.75	–	–	–	4.53	3.61 µM and 1.85 µM	1.92 µM and 1.56 µM	–	0.825 µM	4.51 µM and 1.96 µM	8 µM and 1.24 µM	4.79	5.05
c1ccc2nc3c(nc2c1)sc1ccccc13	> 100	–	> 100	71.1 µM	62.8 µM	> 100	> 100 µM	66.8 µM	–	–	–	–	–	> 100 µM	–	–	–	–
O=S(=O)(Nc1ccc(F)cc1F)c1ccc(-c2cnc(C3CC3)o2)cc1	51.8	–	> 100	68.9 µM	1.25 µM	34.2	22 µM	43.3 µM	–	10.3	2.71 µM	1.75 µM	0.443	52.8 µM	0.219 µM	1.07 µM	0.588	1.7

SMILES	TGI [1] [µM]	TGI [2] [µM]	TGI [3] [µM]	TGI [4]	TGI [5]	TGI [6] [µM]	TGI [7]	TGI [8]	TGI [9] [µM]	GI50 [1] [µM]	GI50 [3]	GI50 [4]	GI50 [10] [µM]	TGI [10]	GI50 [5]	GI50 [6]	GI50 [7] [µM]	GI50 [8] [µM]
CN[C@@H](C)[C@@H](NC)c1ccccc1	> 100	–	–	> 100 µM	> 100 µM	> 100	> 100 µM	> 100 µM	> 100	–	–	–	–	–	–	–	–	–
COc1cc(OC)c(/C=C/c2c3ccccc3cc[n+]2C)c(OC)c1	6.01	–	> 49	25.8 µM	8.01 µM	> 100	5.9 µM	> 100 µM	–	0.674	3.04 µM	1.29 µM	0.541	> 26.2 µM	1.27 µM	18.5 µM	2.01	2.73
OCCCNc1nccc(-c2c(-c3ccc(F)cc3)nn3cc(C(F)(F)F)ccc23)n1	> 25	–	> 25	> 25 µM	> 25 µM	> 25	> 25 µM	> 25 µM	–	> 23.4	> 22.9 µM	> 25 µM	8.42	> 23.4 µM	> 13.4 µM	7.07 µM	15.3	9.49
N=C(N)c1ccc2nc(-c3cc(CC(=O)N[C@@H](CC(=O)O)C(=O)O)cc(-c4cc(S(N)(=O)=O)ccc4O)c3O)[nH]c2c1	> 100	–	> 100	> 100 µM	> 100 µM	> 100	> 100 µM	> 100 µM	–	> 100	> 100 µM	> 100 µM	> 100	> 100 µM	> 100 µM	> 100 µM	> 100	> 100
NC(=O)c1cc(S(=O)(=O)Nc2nnc(-c3ccccc3)c(-c3ccccc3)n2)c(SCc2ccccc2)cc1Cl	> 89.9	–	> 100	> 100 µM	> 61.5 µM	> 100	> 100 µM	> 69.4 µM	–	> 48.2	> 100 µM	> 72.3 µM	> 100	> 100 µM	–	> 100 µM	> 82.3	> 46.9
CCOC(=O)c1c(NC(=O)c2cccc(C(F)(F)F)c2)sc2c(CN(C)C)c(O)ccc12	3.31	–	16.7	32.1 µM	26.8 µM	14.4	7.52 µM	36.2 µM	–	1.76	4.58 µM	13.1 µM	3.74	21.4 µM	11.1 µM	3.34 µM	2.7	16
C#COc1cccc(Nc2c(C#N)cnc3ncc(NC(=O)CCl)cc23)c1	> 62.5	–	> 62.5	> 62.5 µM	> 62.5 µM	> 62.5	> 62.5 µM	> 62.5 µM	–	> 62.5	> 62.5 µM	> 62.5 µM	23.3	> 62.5 µM	45.4 µM	35.1 µM	28.8	> 62.5
COc1ccc(-c2coc3c4c(ccc3c2=O)OCO4)cc1OC	> 100	–	> 100	> 100 µM	> 100 µM	> 100	> 100 µM	> 100 µM	–	–	–	–	–	> 100 µM	–	–	–	–
O=C(O)c1ccc(OCc2ccccc2)c(Cl)c1	> 100	–	> 100	> 100 µM	> 100 µM	> 100	> 100 µM	> 100 µM	–	–	–	–	–	> 100 µM	–	–	–	–
Cc1cc(NS(=O)(=O)c2ccc(Nc3c4ccccc4nc4c(C(=O)N5CCN(CCO)CC5)ccc(Cl)c34)cc2)no1	> 100	> 100	> 100	> 100 µM	> 100 µM	> 100	–	> 100 µM	> 100	–	–	–	–	–	–	–	–	–
O=CN1CCN(CC(O)CN2CCCCC2)CC1 (stereo not drawn)	> 100	–	> 100	> 100 µM	> 100 µM	> 100	> 100 µM	> 100 µM	–	–	–	–	–	> 100 µM	–	–	–	–
CCN1C(=O)N(CC)C2C1NN=c1s/c(=C3\C(=O)N(CC(C)(C)C)c4ccccc43)c(=O)n12 (stereo not drawn)	37.9	–	21.4	14.5 µM	24.2 µM	18.2	15.4 µM	28.1 µM	–	13.1	6.18 µM	3.39 µM	5.71	53.7 µM	2.77 µM	3.65 µM	3.38	5.71
CC(C)N(CCn1c2c3ccccc3ccc2c2oc(=O)c3ccccc3c21)C(C)C	> 100	> 100	> 100	> 100 µM	75.9 µM	> 100	> 100 µM	> 100 µM	–	–	–	–	–	–	–	–	–	–
CSc1ccc2c(c1)C(=O)c1c-2n(CCCBr)c(=O)c2cc([N+](=O)[O-])ccc12	> 100	–	> 100	> 100 µM	> 100 µM	> 100	41.5 µM	> 100 µM	–	> 100	> 100 µM	8.03 µM	17.8	> 100 µM	7.9 µM	3.63 µM	2.11	33.6
CCCCCOc1ccc(/C=N/Nc2cc(C)nc3ccc(Br)cc23)cc1	3.6	–	3.28	3.82 µM	3.39 µM	3	3.64 µM	4.32 µM	–	1.88	1.83 µM	1.85 µM	1.81	3.89 µM	1.77 µM	1.57 µM	1.86	1.85
CCOC(=O)/C=C(/C)Sc1cc(O)c2ccccc2c1O	3.87	–	34	5.67 µM	6.94 µM	11.1	> 23.1 µM	32.8 µM	–	1.8	17.5 µM	2.07 µM	2.23	13.1 µM	2.55 µM	1.59 µM	2.14	14.5
Cc1cc(C)c(NC(=O)c2sc3nc4c(cc3c2N)CN(Cc2ccccc2)CC4)c(C)c1	> 100	–	> 100	> 100 µM	11 µM	93.9	18.1 µM	> 100 µM	–	6.71	12.5 µM	4.51 µM	2.62	> 100 µM	2.35 µM	4.78 µM	5.01	4.69
Cc1nc(-[n+]2nc(-c3ccncc3)nn2-c2ccccc2)sc1C	> 100	–	> 100	> 100 µM	> 100 µM	50.4	> 100 µM	95.9 µM	–	–	–	–	–	> 100 µM	–	–	–	–
COC(=O)/C=C1\CCC(C)O1 (stereo not drawn)	> 100	> 100	> 100	> 100 µM	94 µM	> 100	> 100 µM	–	> 100	–	–	–	–	–	–	–	–	–
